Results taken from PMC9839694, “Genetic basis of thiaminase I activity in a vertebrate, zebrafish Danio rerio” (Scientific Reports, 2023).
Structures can show the parent of a compound that is named as a salt.

Assays:
[1] = target: T1, zebrafish TenA-like thiaminase I (NP_001314821.1) (Danio rerio, UniProt A0A0R4IDF2); test: in-gel thiaminase I activity staining (diazo-coupling) after electrophoresis; type: biochemical; conditions: 0.89 mM thiamine-HCl with a co-substrate, 25 mM sodium phosphate, 37 °C
T1 construct: gene teni.1; synthetic gene in pET52b, expressed in E. coli Rosetta 2(DE3)pLysS, soluble lysate fraction; oligomer 25 to 100 kDa native
T1 sequence (A0A0R4IDF2 22-223): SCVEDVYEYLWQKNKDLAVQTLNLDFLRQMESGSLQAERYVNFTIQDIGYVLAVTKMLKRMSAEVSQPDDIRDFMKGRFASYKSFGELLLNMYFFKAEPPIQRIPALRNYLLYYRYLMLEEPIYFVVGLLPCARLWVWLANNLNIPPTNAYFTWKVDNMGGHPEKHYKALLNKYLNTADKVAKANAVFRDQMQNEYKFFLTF

[2] = target: T2, Paenibacillus thiaminolyticus thiaminase I (WP_087440168) (Paenibacillus thiaminolyticus, UniProt B0FJ10); test: as above; type: biochemical; conditions: 0.89 mM thiamine-HCl with a co-substrate, 25 mM sodium phosphate, 37 °C; recombinant positive control
T2 construct: gene bcmE; native enzyme in concentrated culture supernatant (strain 8188), and recombinant positive control from synthetic gene in pET52b in E. coli; 42 kDa monomer
T2 sequence (B0FJ10 31-409): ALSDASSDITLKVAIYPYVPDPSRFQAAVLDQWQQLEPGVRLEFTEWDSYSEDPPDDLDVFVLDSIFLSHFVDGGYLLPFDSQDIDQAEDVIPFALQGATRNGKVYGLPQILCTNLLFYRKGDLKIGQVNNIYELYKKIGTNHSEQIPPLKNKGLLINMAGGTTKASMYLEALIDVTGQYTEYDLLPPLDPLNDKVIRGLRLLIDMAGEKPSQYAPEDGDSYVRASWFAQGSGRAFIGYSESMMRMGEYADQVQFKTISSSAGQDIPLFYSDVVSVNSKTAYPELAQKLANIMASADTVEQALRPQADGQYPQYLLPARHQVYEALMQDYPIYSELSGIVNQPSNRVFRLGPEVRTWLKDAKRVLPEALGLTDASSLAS

`Cc1ncc(C[n+]2csc(CCO)c2C)c(N)n1` [thiamine-HCl] was tested. Which “in-gel thiaminase I activity staining (diazo-coupling) after electrophoresis” value [1] did it give?
The value was “expressed in the soluble fraction of the protein extract and showed thiaminase I activity”.

And the “in-gel thiaminase I activity staining (diazo-coupling) after electrophoresis” value [2]?
The value was “stained for activity showing thiamine degradation as clear areas”.
